The values below come from publication PMC9994261 (Cell, 2023).

Values after ≈ are worked out from the molar mass of the structure shown. Read-outs that look alike come from different tables or passages of the source.

As usually defined, the Papp is a coefficient for how fast a substance crosses the barrier. By bioavailability is commonly meant dose-corrected exposure relative to a reference, in per cent. The low end stands for little systemic uptake, the high end for much systemic uptake. For orientation: solubility means the dissolved amount per volume that the medium holds.

The subject of data set [1] is Mtb ribosome. The format is biochemical, Mycobacterium tuberculosis.
Data set [2] has as its system Mtb methylated ribosome. As to the kind of experiment: Mtb in vitro translation assay with methylated (erythromycin-treated) ribosome. The format is biochemical, Mycobacterium tuberculosis.
In data set [3] the test system is Mtb H37Rv. Description: Combination study in mouse model of TB. The format is in vivo. The settings on record: mouse, in vivo.
In data set [4] the test system is Mtb H37Rv. As to the kind of experiment: microbe, parasite or virus in culture. The format is cell-based, Mycobacterium tuberculosis. The settings on record: Mycobacterium tuberculosis, H37RV; read-out: MIC for Mtb in liquid culture.
Data set [5] relates to M. bovis BCG Pasteur. As to the kind of experiment: microbe, parasite or virus in culture. The format is cell-based, Mycobacterium bovis.
Data set [6] deals with Mtb H37Rv. Description: MIC80 after overnight pre-incubation of Mtb with subinhibitory macrolide. The format is cell-based. The settings on record: Mycobacterium tuberculosis.
Data set [7] addresses T1, CYP3A4 (Homo sapiens, UniProt P08684).
T1 construct: human liver microsomes (purchased from BD Gentest as a pooled batch from 150 donors); tissue BD Gentest Cat#452117; host or cells: pooled human liver microsomes (150 donors)
As to the kind of experiment: CYP3A4 reversible inhibition in human liver microsomes. The format is in vitro ADME. Particulars: substrate not stated; read-out: CYP3A4 inhibition. Here is the method:
Incubations were performed with 0.1 mg/mL human liver microsomes (purchased from BD Gentest as a pooled batch from 150 donors) in a final incubation volume of 0.25 mL. The incubation medium contained 0.05 M phosphate buffer (pH 7.4) containing an NADPH regenerating system (including 1.3 mM NADP, 3.3 mM glucose 6-phosphate,3.3 mM MgCl2, and 1.0 U/mL glucose 6-phosphate dehydrogenase). Probe CYP3A4 substrates (midazolam at 3 μM and testosterone at 50 μM), were incubated for 10 and 30 min, respectively, with increasing concentrations of GM, MGM or CGM (concentration range: 1 - 30 μM). The reaction was stopped by adding acetonitrile to precipitate the proteins. The incubation mixtures were then centrifuged for 5 min at 10,000 × g, and an aliquot of the supernatant was analyzed using high-performance liquid chromatography coupled to mass spectrometry for the assessment of 1’-hydroxymidazolam and 6β-hydroxytestosterone metabolite formation.
In general terms: Liver microsomes are vesicles of endoplasmic reticulum, rich in cytochrome P450 enzymes.

The format of data set [8] is in vitro ADME.
The subject of data set [9] is GFP-expressing Mtb H37Rv in RAW264.7 macrophages. As to the kind of experiment: Intramacrophage assay (MIC for Mtb in macrophages). The format is cell-based, Mycobacterium tuberculosis. The settings on record: Mycobacterium tuberculosis, H37RV; read-out: MIC for Mtb tuberculosis in macrophages.
Data set [10] can be described thus: in vitro. The format is in vitro ADME. The settings on record: human, Caco-2; read-out: Permeability in Caco2 cells (Papp). On the technique in general: Caco-2 monolayers are a common model of the intestinal barrier.
Data set [11] is classed as in vitro ADME, human. Here is the method: The metabolic stability of test compounds was determined as described.[57]^,[58] Incubation and experimental conditions with human hepatic microsomal fractions (purchased from BD Gentest as a pooled batch from 6 donors) were as follows: microsomal proteins, 1 mg/mL; bovine serum albumin, 1 mg/mL; substrate, 5 μM; incubation duration, 20 min; cytochrome P-450 monooxygenases (CYPs) and flavin containing monooxygenases (FMOs) cofactor, 1 mM NADPH. Enzyme activity was stopped with 1 volume of acetonitrile. […] For each test compound and for each microsomal preparation, three incubations were prepared: absolute reference in buffer (without enzyme material, i.e., microsomes); incubation without NADPH cofactor (with microsomal fractions); and incubation with NADPH (with microsomal fractions). For most compounds, biotransformation, as observed in hepatic microsomal fractions in the presence of the NADPH cofactor, consists of oxidative reactions catalyzed by either CYPs or FMOs. In these conditions, the percentage of total metabolism, which corresponds to oxidative metabolism, was determined as follows: [% total metabolism] ≈ [% oxidative metabolism] = [unchanged compound (UC) peak area − NADPH UC peak area + NADPH] × 100%, where NADPH corresponds to the enzyme cofactor for oxidation reactions catalyzed by either CYP or FMO.

Data set [12] in a line: in vivo. Particulars: male, Swiss, mouse, po.
A short description of data set [13]: physchem. The format is physicochemical. Particulars: aqueous buffer; PBS pH 7.4; read-out: Solubility: PBS@pH 7.4.
Setting [14] is: non-methylated ribosome, read-out: IC50 ribosome.
Where [15] appears, read: methylated ribosome, read-out: IC50 methylated ribosome.
The mark [16] stands for this setting: read-out: Inhibition of Mtb translation (IC50 μM).

T1 sequence (P08684 whole entry): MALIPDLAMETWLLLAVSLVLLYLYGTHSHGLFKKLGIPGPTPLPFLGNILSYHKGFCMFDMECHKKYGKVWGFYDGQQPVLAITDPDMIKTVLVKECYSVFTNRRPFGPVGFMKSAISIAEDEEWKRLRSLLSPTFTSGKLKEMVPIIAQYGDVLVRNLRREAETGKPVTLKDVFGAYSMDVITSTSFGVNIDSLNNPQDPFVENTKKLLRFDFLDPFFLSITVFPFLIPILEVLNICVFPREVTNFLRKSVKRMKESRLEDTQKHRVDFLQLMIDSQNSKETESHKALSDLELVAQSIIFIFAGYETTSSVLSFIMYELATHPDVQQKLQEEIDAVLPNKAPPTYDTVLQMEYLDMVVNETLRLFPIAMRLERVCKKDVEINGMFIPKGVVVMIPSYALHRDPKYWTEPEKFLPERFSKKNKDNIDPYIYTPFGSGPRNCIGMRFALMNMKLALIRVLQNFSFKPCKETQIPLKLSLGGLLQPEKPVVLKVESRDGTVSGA

`CC[C@H]1OC(=O)[C@H](C)[C@@H](O[C@H]2C[C@@](C)(OC)[C@@H](O)[C@H](C)O2)[C@H](C)[C@@H](O[C@@H]2O[C@H](C)C[C@H](N(C)C)[C@H]2O)[C@](C)(O)C[C@@H](C)CN(C)[C@H](C)[C@@H](O)[C@]1(C)O` [Azithromycin, reference compound]: the results for the IC50 in data set [1] (setting [14]) and in data set [2] (setting [15]) were 2.91 µM and above 100 µM, respectively.
For the molecule `COc1nc2ccc(Br)cc2cc1[C@@H](c1ccccc1)[C@@](O)(CCN(C)C)c1cccc2ccccc12` [BDQ, Bedaquiline], in data set [3], the “Mean ± SD lung CFU counts, Week 4” value was 2.96 ± 0.19.
Consider `CCC[C@@H]1C[C@@H](C(=O)N[C@@H]([C@H]2O[C@H](SC)[C@H](O)[C@@H](O)[C@H]2O)[C@H](C)Cl)N(C)C1` [Clindamycin, reference compound], for which the IC50 worked out at 0.08 µM in [1] (setting [14]) and 42.3 µM in [2] (setting [15]).
With `CC[C@H]1OC(=O)[C@H](C)[C@@H](O[C@H]2C[C@@](C)(OC)[C@@H](O)[C@H](C)O2)[C@H](C)[C@@H](O[C@@H]2O[C@H](C)C[C@H](N(C)C)[C@H]2O)[C@](C)(O)C[C@@H](C)C(=O)[C@H](C)[C@@H](O)[C@]1(C)O` [Erythromycin, reference compound], in [4], the MIC turned out to be 128 µM (≈ 93.9 µg/mL). The IC50 was determined as 0.671 µM in [1] (setting [14]) and 140 µM in [2] (setting [15]).
On to `NNC(=O)c1ccncc1` [Isoniazid, reference compound], for which, in data set [5], the “Growth inhibition (MIC80)” value amounted to 0.40 µM. Moreover, the MIC80 in data set [5] (Mycobacterium tuberculosis variant bovis BCG, BCG, read-out: Growth inhibition (MIC80)) was found to be 0.34 µM (≈ 0.0466 µg/mL).
For the molecule `CC(=O)NC[C@H]1CN(c2ccc(N3CCOCC3)c(F)c2)C(=O)O1` [Linezolid], the MIC80 in data set [6] amounted to 1 µM (≈ 0.337 µg/mL). In addition, in [3], the “Mean ± SD lung CFU counts, Week 4” value is reported as 6.86 ± 0.08.
As to `O=[N+]([O-])c1cn2c(n1)OC[C@@H](OCc1ccc(OC(F)(F)F)cc1)C2` [Pa, Pretomanid], the “Mean ± SD lung CFU counts, Week 4” value in data set [3] was found to be 5.83 ± 0.12.
On to `COC1C(OCC(C)C2OC(=O)C(C)C(OC3CC(C)(O)C(O)C(C)O3)C(C)C(OC3OC(C)CC(=O)C3O)C(C)CC(C)(O)C(=O)C(C)C(OC(=O)CC(C)C)C2C)OC(C)C(O)C1OC` [SEQ-503, (3S,4S,5R,7S,9S,10S,11R,12S,13R)-12-[(4,5-dihydroxy-4,6-dimethyltetrahydro-2H-pyran2-yl)oxy]-7-hydroxy-2-{1-[(5-hydroxy-3,4-dimethoxy-6-methyltetrahydro-2H-pyran-2-yl)oxy]propan-2-yl}-10-[(3-hydroxy-6-methyl-4-oxotetrahydro-2H-pyran-2-yl)oxy]-3,5,7,9,11,13-hexamethyl-6,14-dioxooxacyclotetradecan-4-yl) 3-methylbutanoate], for which the IC50 is above 10000 nM in data set [7], 0.021 µM in data set [1] (setting [16]) and 0.022 µM in [2] (read-out: Translation inhibition of Mtb methylated ribosome (IC50 μM)). In data set [8], the “Metabolic stability in mouse liver microsomes (% metabolized compound after 20 min)” value is reported as 0/ND %. Moreover, the MIC in [9] stood at 2.5 µM (≈ 2.41 µg/mL); in [4], 1.4 µM (≈ 1.35 µg/mL). Moreover, the Papp in data set [10] stood at 0.07 ×10⁻⁶ cm/s. The “Metabolic stability in human liver microsomes (% metabolized compound after 20 min)” value in [11] (20 min incubation) is on record as 67%. Moreover, the “Metabolic stability in human liver microsomes (% metabolized compound after 20 min), (K)” value in data set [11] (in presence of ketoconazole CYP3A inhibitor (K)) is reported as 4(K) %. The “Metabolic stability in human liver microsomes (% metabolized compound after 20 min), (Q)” value in data set [11] (in presence of quinidine CYP2D6 inhibitor (Q)) is given as “/41(Q) %”. For the same molecule, in [12], the bioavailability worked out at 22%. The solubility in data set [13] came out at 522 µg/mL (≈ 542 µM).
For `CON=C1C[C@@H](C)O[C@@H](O[C@@H]2[C@@H](C)[C@H](O[C@H]3C[C@@](C)(O)[C@@H](O)[C@H](C)O3)[C@@H](C)C(=O)O[C@H](C(C)CO[C@@H]3O[C@H](C)[C@@H](O)[C@@H](OC)[C@H]3OC)[C@H](C)[C@@H](OC(=O)CC(C)C)[C@@H](C)C(=O)[C@@](C)(OC(=O)NCCn3c([N+](=O)[O-])cnc3C)C[C@@H]2C)[C@@H]1O` (stereo partly drawn) [SEQ-569], the MIC in data set [4] is 0.57 µM (≈ 0.677 µg/mL). The IC50 in data set [1] (setting [16]) was 0.054 µM.
For `CO/N=C1\C[C@@H](C)O[C@@H](O[C@@H]2[C@@H](C)[C@H](O[C@H]3C[C@@](C)(O)[C@@H](O)[C@H](C)O3)[C@@H](C)C(=O)O[C@H]([C@@H](C)CO[C@@H]3O[C@H](C)[C@@H](O)[C@@H](OC)[C@H]3OC)[C@H](C)[C@@H](OC(=O)CC(C)C)[C@@H](C)C(=O)[C@@](C)(OC(=O)NCCNS(=O)(=O)c3ccccc3[N+](=O)[O-])C[C@@H]2C)[C@@H]1O` [SEQ-977], in that order: 0.13 µM (≈ 0.164 µg/mL) and 0.034 µM.
With `CC[C@H]1OC(=O)C[C@@H](O)[C@H](C)[C@@H](O[C@@H]2O[C@H](C)[C@@H](O[C@H]3C[C@@](C)(O)[C@@H](O)[C@H](C)O3)[C@H](N(C)C)[C@H]2O)[C@@H](CC=O)C[C@@H](C)C(=O)/C=C/C(C)=C/[C@@H]1CO[C@@H]1O[C@H](C)[C@@H](O)[C@@H](OC)[C@H]1OC` [Tylosin, reference compound], the IC50 in [1] (setting [14]) amounted to 0.0892 µM; in data set [2] (setting [15]) it was 0.377 µM.
Regarding `NC(=O)c1cnccn1` [Z, Pyrazinamide], the “Mean ± SD lung CFU counts, Week 4” value in [3] came to 5.99 ± 0.19.
With `CC[C@H]1OC(=O)[C@H](C)[C@@H](O[C@H]2C[C@@](C)(OC)[C@@H](O)[C@H](C)O2)[C@H](C)[C@@H](O[C@@H]2O[C@H](C)C[C@H](N(C)C)[C@H]2O)[C@](C)(O)C[C@@H](C)/C(=N\OCOCCOC)[C@H](C)[C@@H](O)[C@]1(C)O` [roxithromycin, reference compound], in data set [4], the MIC came out at 32 µM (≈ 26.8 µg/mL).
